Data on one compound can be found in patent US20260306641A1, “HELICASE DEGRADERS” (priority 2023, published 2026).

Assay [1] relates to Psn1, H460 and 143B tumor lines. The assay is described as follows: CellTiter-Glo viability, tumor lines. In kind it is cell-based, human. On the procedure:
Human keratinocytes (HaCaT; RRID:CVCL_0038), 143B cells (osteosarcoma; RRID:CVCL_2270), and HEK-293T (RRID:CVCL_0063) cells were maintained in Dulbecco's Modified Eagle's Medium (DMEM) supplemented with 10% fetal bovine serum (FBS; Peak Serum, PS-FB-2). Human Psn1 (pancreatic ductal adenocarcinoma; RRID:CVCL_1644) and H460 (non-small cell lung carcinoma; RRID:CVCL_0459) cells were cultured in RPMI-1640 medium supplemented with 10% FBS. HaCaT cells were synchronized in Go using serum starvation for 48 hr and released into the cell cycle by addition of DMEM with 10% FBS (51). Novobiocin (cat #46531) and Courmermycin-A1 (cat #C9270) were obtained from Sigma. Etoposide (cat #S1225) and AT7519 (cat #S1524) were obtained from SelleckChem. All stock solutions of inhibitors were stored at −20° C. as 10 mM suspensions in DMSO.
Cell viability determinations were performed using CellTiter-Glo Assays (Promega; cat #G7572). Cells were seeded in 96-well plates at a density of ~3×10^3 cells/well and treated with drugs for 72 hr, after which the cells were processed for viability using CellTiter-Glo reagent according to the instructions of the manufacturer. Each drug concentration test was performed using four replicates, and results averaged and plotted on graphs, +/−1 s.d.
A general note: Cellular ATP, detected with luciferase, serves as a proxy for viable cell number.

In assay [2] the test system is Cdk1 and Cdk2 targets (Rb, Cdc6, PP1a). The assay is described as follows: Immunoblot of Cdk1/Cdk2-dependent targets, HaCaT cells. The class given is cell-based, human. To be noted: extended exposure (18 hrs). On the procedure:
Immunoblots of total proteins from synchronized HaCaT cells treated with compounds at time of release (0 hr; beginning of G1 phase) and collected after 18 hrs of exposure. (FIG. 5A) DDK-dependent phosphorylation sites on Mcm2 were analyzed with phospho-specific antibodies. (FIG. 5B) Cdk1- and Cdk2-dependent targets (Rb, Cdc6, and PP1α) were analyzed with phospho-specific antibodies.
(In general: In western blotting, separated proteins are transferred to a membrane and probed.)

On to `CO[C@@H]1[C@@H](OC(=O)c2ccc(C)[nH]2)[C@@H](O)[C@H](Oc2ccc3c(O)c(NC(=O)c4c[nH]c(C(=O)Nc5c(O)c6ccc(O[C@@H]7OC(C)(C)[C@H](OC)[C@@H](OC(=O)c8ccc(C)[nH]8)[C@H]7O)c(C)c6oc5=O)c4C)c(=O)oc3c2C)OC1(C)C` [CA1], for which the IC50 (as a rule, the concentration needed to halve the response being measured) in assay [1] (Homo sapiens, 72 hr, all three tumor lines (Psn1, H460, 143B), read-out: tumor line viability IC50 estimates) was 1000 to 4000 nM. For the same compound, the “sensitivity of tumor lines relative to HaCaT” value in assay [1] (Psn1, H460, 143B vs HaCaT, 4320 min) is reported as 4-10 times. For the same compound, the “phosphorylation of Cdk2 targets Rb, Cdc6 (S54P) and Cdk1 target PP1a” value in assay [2] was “no effect on these substrates”.
